The text below walks through data of patent publication US9346809B2 (LEO PHARMA A/S, priority 2009, dated 2016).

By EC50 is commonly meant the concentration giving half of the maximal effect.

The structures appear in SMILES notation. Read-outs that look alike come from different tables or passages of the source.

Common to all, as to format: biochemical
The target of experiment [1] is T1, JAK1 (aa 850-1154, catalytic domain, GST-tag) (Homo sapiens, UniProt P23458).
T1 construct: JAK1 (aa 850-1154) and TYK2 (aa 871-1187) are expressed with an N-terminally fused GST-tag; GST (N); purchased Carna Biosciences, Inc; host or cells: baculovirus expression system
As to the kind of experiment: JAK kinase assay (HTRF, phosphorylation of TK substrate-biotin), JAK1. As to conditions: ATP at Km (7 μM), read-out: JAK1 kinase inhibitory activity (EC50 indicator). Put shortly:
(§1)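 Per reaction, 5 ng JAK1, 0.1 ng JAK2, 0.3 ng JAK3 or 0.8 ng TYK2 (baculovirus-expressed catalytic domains) acted on 1 μM TK substrate-biotin at Km ATP for 20-30 min, RT. Phosphorylation measured by HTRF.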
On the technique in general: In TR-FRET formats the signal depends on donor and acceptor labels being close together.

In experiment [2] the target is T2, JAK2 (catalytic domain, His-tag) (Homo sapiens, UniProt O60674).
T2 construct: All four purified enzymes contain only the catalytic domain; His (N); purchased Carna Biosciences, Inc; host or cells: baculovirus expression system
As to the kind of experiment: JAK kinase assay (HTRF, phosphorylation of TK substrate-biotin), JAK2. As to conditions: ATP at Km (4 μM), read-out: JAK2 kinase inhibitory activity (EC50 indicator). Put shortly: as §1

The target of experiment [3] is T3, JAK3 (catalytic domain, His-tag) (Homo sapiens, UniProt P52333).
T3 construct: All four purified enzymes contain only the catalytic domain; His (N); purchased Carna Biosciences, Inc; host or cells: baculovirus expression system
As to the kind of experiment: JAK kinase assay (HTRF, phosphorylation of TK substrate-biotin), JAK3. As to conditions: ATP at Km (2 μM), read-out: JAK3 kinase inhibitory activity (EC50 indicator). Put shortly: as §1

Experiment [4] has as its target T4, TYK2 (aa 871-1187, catalytic domain, GST-tag) (Homo sapiens, UniProt P29597).
T4 construct: JAK1 (aa 850-1154) and TYK2 (aa 871-1187) are expressed with an N-terminally fused GST-tag; GST (N); purchased Carna Biosciences, Inc; host or cells: baculovirus expression system
T4 sequence (P29597 871-1187): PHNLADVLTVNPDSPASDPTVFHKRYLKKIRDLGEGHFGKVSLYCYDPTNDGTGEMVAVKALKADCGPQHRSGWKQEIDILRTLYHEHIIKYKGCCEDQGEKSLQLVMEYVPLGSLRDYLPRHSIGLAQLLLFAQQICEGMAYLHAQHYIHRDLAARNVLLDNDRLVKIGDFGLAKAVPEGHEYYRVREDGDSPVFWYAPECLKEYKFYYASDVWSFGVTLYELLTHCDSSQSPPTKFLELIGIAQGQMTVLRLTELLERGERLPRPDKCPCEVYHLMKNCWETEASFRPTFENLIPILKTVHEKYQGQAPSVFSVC
As to the kind of experiment: JAK kinase assay (HTRF, phosphorylation of TK substrate-biotin), TYK2. As to conditions: ATP at Km (13 μM), read-out: TYK2 kinase inhibitory activity (EC50 indicator). Put shortly: as §1

T2 sequence (O60674 849-1124 limits assumed): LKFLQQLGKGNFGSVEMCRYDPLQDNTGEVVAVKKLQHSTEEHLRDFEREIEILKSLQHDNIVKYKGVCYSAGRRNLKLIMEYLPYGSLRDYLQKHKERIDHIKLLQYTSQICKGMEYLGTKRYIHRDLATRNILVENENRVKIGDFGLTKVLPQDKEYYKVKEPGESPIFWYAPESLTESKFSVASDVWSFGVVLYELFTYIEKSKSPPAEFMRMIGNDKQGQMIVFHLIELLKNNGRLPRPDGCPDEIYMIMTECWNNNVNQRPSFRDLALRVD
T3 sequence (P52333 822-1111 limits assumed): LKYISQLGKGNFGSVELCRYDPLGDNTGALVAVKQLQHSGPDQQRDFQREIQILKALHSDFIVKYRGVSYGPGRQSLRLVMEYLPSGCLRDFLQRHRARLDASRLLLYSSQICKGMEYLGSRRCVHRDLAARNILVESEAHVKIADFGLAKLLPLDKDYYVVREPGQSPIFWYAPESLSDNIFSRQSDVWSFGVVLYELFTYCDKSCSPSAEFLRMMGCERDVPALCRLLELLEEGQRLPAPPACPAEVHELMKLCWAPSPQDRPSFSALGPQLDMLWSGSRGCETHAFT
T1 sequence (P23458 850-1154): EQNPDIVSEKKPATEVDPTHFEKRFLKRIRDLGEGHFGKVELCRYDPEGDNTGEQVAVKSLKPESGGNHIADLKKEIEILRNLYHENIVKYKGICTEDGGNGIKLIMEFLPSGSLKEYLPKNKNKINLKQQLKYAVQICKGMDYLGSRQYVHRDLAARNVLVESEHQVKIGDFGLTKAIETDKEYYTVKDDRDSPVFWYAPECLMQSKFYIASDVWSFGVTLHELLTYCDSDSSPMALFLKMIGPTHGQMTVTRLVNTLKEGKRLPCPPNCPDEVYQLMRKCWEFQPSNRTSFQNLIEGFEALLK

With `S=C(NCc1ccccc1)N1[C@@H]2CC[C@H]1CN(c1ncnc3[nH]ccc13)C2` [Example 11, 3-(7H-Pyrrolo[2,3-d]pyrimidin-4-yl)-3,8-diazabicyclo[3.2.1]octane-8-carbothioic acid benzylamide], the EC50 in experiment [1] is < 100 nM; in experiment [2] it was < 100 nM; in experiment [3], 100 to 500 nM; in experiment [4] it was > 500 nM.
In the case of `CNS(=O)(=O)c1cc(C(=O)N2CCN(c3ncnc4[nH]ccc34)CC23CC3)sc1C` [Example 375, 2-Methyl-5-[7-(7H-pyrrolo[2,3-d]pyrimidin-4-yl)-4,7-diaza-spiro[2.5]octane-4-carbonyl]-thiophene-3-sulfonic acid methylamide], the EC50 in experiment [1] (HTRF assay) was < 100 nM; in experiment [2] (HTRF assay) it was < 100 nM; in experiment [3] (HTRF assay) it was < 100 nM; in experiment [4] (HTRF assay) it was 100 to 500 nM.
In the case of `CC(C#N)c1cccc(C(=O)N2CCN(c3ncnc4[nH]ccc34)CC23CC3)c1` (stereo not shown) [Example 8, 2-{3-[7-(7H-Pyrrolo[2,3-d]pyrimidin-4-yl)-4,7-diazaspiro[2.5]octane-4-carbonyl]phenyl}propionitrile], the EC50 was < 100 nM in experiment [1], < 100 nM in experiment [2], 100 to 500 nM in experiment [3] and > 500 nM in experiment [4].
In the case of `CC(C)(C)OC(=O)NCCNS(=O)(=O)c1ccc(C(=O)N2CCN(c3ncnc4[nH]ccc34)CC23CC3)cc1` [Example 428, (2-{4-[7-(7H-Pyrrolo[2,3-d]pyrimidin-4-yl)-4,7-diaza-spiro[2.5]octane-4-carbonyl]-benzenesulfonylamino}-ethyl)-carbamic acid tert-butyl ester], the EC50 in experiment [1] (HTRF assay) is < 100 nM; in experiment [2] (HTRF assay), < 100 nM; in experiment [3] (HTRF assay), < 100 nM; in experiment [4] (HTRF assay), 100 to 500 nM.
On to `CS(=O)(=O)c1ccc(CC(=O)N2CCN(c3ncnc4[nH]ccc34)CC23CC3)cc1` [Example 420, 2-(4-Methanesulfonyl-phenyl)-1-[7-(7H-pyrrolo[2,3-d]pyrimidin-4-yl)-4,7-diaza-spiro[2.5]oct-4-yl]-ethanone], for which the EC50 in experiment [1] (HTRF assay) was < 100 nM; in experiment [2] (HTRF assay), < 100 nM; in experiment [3] (HTRF assay), < 100 nM; in experiment [4] (HTRF assay) it was > 500 nM.
Regarding `Cc1c(C(=O)N2CCN(c3ncnc4[nH]ccc34)CC23CC3)sc2ccccc12` [Example 296, (3-Methyl-benzo[b]thiophen-2-yl)-[7-(7H-pyrrolo[2,3-d]pyrimidin-4-yl)-4,7-diaza-spiro[2.5]oct-4-yl]-methanone], the EC50 in experiment [1] (HTRF assay) was < 100 nM; in experiment [2] (HTRF assay), < 100 nM; in experiment [3] (HTRF assay), 100 to 500 nM; in experiment [4] (HTRF assay), < 100 nM.
Take `N#Cc1cccc(C(=O)N2[C@@H]3CC[C@@H]2CN(c2ncnc4[nH]ccc24)C3)c1` [Example 173, 3-[3-(7H-Pyrrolo[2,3-d]pyrimidin-4-yl)-3,8-diaza-bicyclo[3.2.1]octane-8-carbonyl]-benzonitrile]: the EC50 in experiment [1] is < 100 nM; in experiment [2], < 100 nM; in experiment [3] it was < 100 nM; in experiment [4] it was 100 to 500 nM.
Take `CCOC(=O)NC(=S)N1[C@@H]2CC[C@H]1CN(c1ncnc3[nH]ccc13)C2` [Example 29, [3-(7H-Pyrrolo[2,3-d]pyrimidin-4-yl)-3,8-diazabicyclo[3.2.1]octane-8-carbothioyl]carbamic acid ethyl ester]: the EC50 in experiment [1] is 100 to 500 nM; in experiment [2] it was 100 to 500 nM; in experiment [3], > 500 nM; in experiment [4], > 500 nM.
As for `NS(=O)(=O)c1c[nH]c(C(=O)N2CCN(c3ncnc4[nH]ccc34)CC23CC3)c1` [Example 402, 5-[7-(7H-Pyrrolo[2,3-d]pyrimidin-4-yl)-4,7-diaza-spiro[2.5]octane-4-carbonyl]-1H-pyrrole-3-sulfonic acid amide], the EC50 in experiment [1] (HTRF assay), in experiment [2] (HTRF assay), in experiment [3] (HTRF assay) and in experiment [4] (HTRF assay) was < 100 nM throughout.
For `CC(=O)Nc1nc(N2CCN(C(=O)Cc3ccc(C#N)cc3)C3(CC3)C2)c2cc[nH]c2n1` [Example 93, N-(4-{4-[2-(4-Cyano-phenyl)-acetyl]-4,7-diaza-spiro[2.5]oct-7-yl}-7H-pyrrolo[2,3-d]pyrimidin-2-yl)-acetamide], the EC50 is < 100 nM in experiment [1], < 100 nM in experiment [2], < 100 nM in experiment [3] and 100 to 500 nM in experiment [4].
For `Cc1c(C(=O)N2[C@H]3CC[C@H]2CN(c2ncnc4[nH]ccc24)C3)sc2ccccc12` [Example 245, (3-Methyl-benzo[b]thiophen-2-yl)-[3-(7H-pyrrolo[2,3-d]pyrimidin-4-yl)-3,8-diaza-bicyclo[3.2.1]oct-8-yl]-methanone], the EC50 was < 100 nM in experiment [1] (HTRF assay), < 100 nM in experiment [2] (HTRF assay), < 100 nM in experiment [3] (HTRF assay) and > 500 nM in experiment [4] (HTRF assay).
Consider `Cc1cc(S(N)(=O)=O)ccc1OCC(=O)N1CCN(c2ncnc3[nH]ccc23)CC12CC2` [Example 411, 3-Methyl-4-{2-oxo-2-[7-(7H-pyrrolo[2,3-d]pyrimidin-4-yl)-4,7-diaza-spiro[2.5]oct-4-yl]-ethoxy}-benzenesulfonamide], for which the EC50 in experiment [1] (HTRF assay), in experiment [2] (HTRF assay), in experiment [3] (HTRF assay) and in experiment [4] (HTRF assay) was < 100 nM each time.
For `N#CC1(C(=O)N2CCN(c3ccnc4[nH]ccc34)CC23CC3)CC1` [Example 117, 1-[7-(1H-Pyrrolo[2,3-b]pyridin-4-yl)-4,7-diaza-spiro[2.5]octane-4-carbonyl]-cyclopropanecarbonitrile], the EC50 was 100 to 500 nM in experiment [1], 100 to 500 nM in experiment [2], 100 to 500 nM in experiment [3] and > 500 nM in experiment [4].
Regarding `COc1cc(C(=O)N2CCN(c3ncnc4[nH]ccc34)CC23CC3)cs1` [Example 384, (5-Methoxy-thiophen-3-yl)-[7-(7H-pyrrolo[2,3-d]pyrimidin-4-yl)-4,7-diaza-spiro[2.5]oct-4-yl]-methanone], the EC50 in experiment [1] (HTRF assay), in experiment [2] (HTRF assay), in experiment [3] (HTRF assay) and in experiment [4] (HTRF assay) was < 100 nM throughout.
For the compound `COC(=O)c1cc2c(N3CCN(C(=O)Cc4ccc(CC#N)cc4)C4(CC4)C3)ncnc2[nH]1` [Example 122, 4-{4-[2-(4-Cyanomethyl-phenyl)-acetyl]-4,7-diaza-spiro[2.5]oct-7-yl}-7H-pyrrolo[2,3-d]pyrimidine-6-carboxylic acid methyl ester], the EC50 in experiment [1], in experiment [2], in experiment [3] and in experiment [4] was > 500 nM each time.
Take `NS(=O)(=O)c1cc(OCC(=O)N2CCN(c3ncnc4[nH]ccc34)CC23CC3)ccc1Cl` [Example 102, 2-Chloro-5-{2-oxo-2-[7-(7H-pyrrolo[2,3-d]pyrimidin-4-yl)-4,7-diaza-spiro[2.5]oct-4-yl]-ethoxy}-benzenesulfonamide]: the EC50 in experiment [1] is < 100 nM; in experiment [2], < 100 nM; in experiment [3], < 100 nM; in experiment [4] it was 100 to 500 nM.
Consider `Cc1ccc(C(=O)N2C3CCC2CN(c2ncnc4[nH]ccc24)C3)cc1S(N)(=O)=O` [Example 138, 2-Methyl-5-[3-(7H-pyrrolo[2,3-d]pyrimidin-4-yl)-3,8-diaza-bicyclo[3.2.1]octane-8-carbonyl]-benzenesulfonamide], for which the EC50 in experiment [1] was < 100 nM; in experiment [2], < 100 nM; in experiment [3] it was < 100 nM; in experiment [4], > 500 nM.
Regarding `CS(=O)(=O)c1cccc(C(=O)N2CCN(c3ncnc4[nH]ccc34)CC23CC3)c1` [Example 367, (3-Methanesulfonyl-phenyl)-[7-(7H-pyrrolo[2,3-d]pyrimidin-4-yl)-4,7-diaza-spiro[2.5]oct-4-yl]-methanone], the EC50 in experiment [1] (HTRF assay) is < 100 nM; in experiment [2] (HTRF assay), < 100 nM; in experiment [3] (HTRF assay) it was 100 to 500 nM; in experiment [4] (HTRF assay), 100 to 500 nM.
Consider `O=C(c1ccccn1)N1CCN(c2ccnc3[nH]ccc23)CC12CC2` [Example 222, Pyridin-2-yl-[7-(1H-pyrrolo[2,3-b]pyridin-4-yl)-4,7-diaza-spiro[2.5]oct-4-yl]-methanone], for which the EC50 in experiment [1] (HTRF assay) was 100 to 500 nM; in experiment [2] (HTRF assay) it was 100 to 500 nM; in experiment [3] (HTRF assay), > 500 nM; in experiment [4] (HTRF assay), > 500 nM.
